Test results from US20080207632A1, “PROTEIN KINASE INHIBITORS” (SUPERGEN, INC., priority 2006, published 2008).
Like-named read-outs stand apart in the source and are kept apart here.

Tested on: Panc-1 (pancreas)
Experiment: in vitro cytotoxicity assay (Cell-Titer-Glo), Panc-1
Assay type: cell-based
Details: Homo sapiens
Description: (§1) To evaluate cell killing of cancer cell lines, an in vitro cytotoxicity assay was performed. The tumor cell lines used were purchased from the American Type Culture Collection, and are identified as follows: Panc-1 (pancreas), MiaPaCa-2 (pancreas), MCF-7 (breast), HT-29 (colon), U2-OS (osteosarcoma), OVCAR-3 (ovary), HepG2 (hepatocellular carcinoma) and TT (medullary thyroid). The assay utilized the Cell-Titer-Glo Non-Radioactive Cell Proliferation Assay (Promega Corp., Madison, Wis.). First the cells were cultured in RPMI 1640 medium (Cat# 21870-076, Invitrogen Corporation) supplemented with 300 mg/L L-glutamine, 100 units/ml penicillin, 100 μg/ml streptomycin and 10% fetal bovine serum. All the cell lines were incubated in a humidified incubator at 37° C. with 5% CO2 atmosphere.
Cells were plated at a density of 2000 to 10000 cells per well, depending on their growth rate, in 0.09 mL medium on day 0 in 96-well Microlite TCT microtiter plates (7418, Thermo Labsystems, Franklin, Mass.). On day 1, 10 μL of serial dilutions of the individual compounds were added to the plates in replicates of 3. After incubation for 4 days at 37° C. in a humidified incubator, the cells were lysed in the Cell-Titer-Glo reagent, which also contains luciferase enzyme. The luciferase reaction utilizes ATP released from lysed cells to produce light, the intensity of which is linearly related to the amount of ATP. Thus, the amount of light produced is a reflection of the number of cells remaining in the well after drug treatment. This luminescence was measured using a Luminoskan luminometer (Thermo Electron Corp., Vantaa, Finland) Data were expressed as the percentage of survival of control cells calculated from the luminescence corrected for background. The surviving percent of cells was determined by dividing the mean luminescence values of the treated wells by the mean luminescence values of the control and multiplying by 100.
as §1, with “Briefly,” for “To evaluate cell killing of cancer cell lines, an in vitro cytotoxicity assay was performed. The”, “thyroid), PC-3 (prostate) and A549 (lung).” for “thyroid).”
as §1, with “carcinoma), PC-3 (prostate),” for “carcinoma)”, “A549 (lung).” for “TT (medullary thyroid).”
Cells were plated at a density of 2000 to 10000 cells per well, depending on their growth rate, in 0.09 mL medium on day 0 in 96-well Microlite TCT microtiter plates (#7418, Thermo Labsystems, Franklin, Mass.). On day 1, 10 μL of serial dilutions of the individual compounds were added to the plates in replicates of 3. After incubation for 4 days at 37° C. in a humidified incubator, the cells were lysed in the Cell-Titer-Glo reagent, which also contains luciferase enzyme. […]

[1] = PANC-1, 96 h, Example 20, 4 days, read-out: Cell-based IC50 values Panc-1
[2] = PANC-1, 96 h, Table 9, 4 days, read-out: IC50 Panc-1

CC(=O)NS(=O)(=O)c1ccc(NC(=S)N2CCN(c3ncnc4[nH]c5cc(C(F)(F)F)c(Cl)cc5c34)CC2)cc1 [Compound 1-1, 4-(6-Chloro-7-trifluoromethyl-9H-pyrimido[4,5-b]indol-4-yl)-piperazine-1-carbothioic acid (4-acetylsulfamoyl-phenyl)-amide]
IC50 (PANC-1, 96 h, Example 18, 4 days, read-out: calculated IC50 Panc-1): 40.7 µM | IC50 [1]: 37.5 µM | IC50 (PANC-1, Table 10, 96 hours, read-out: IC50 Panc1 (inhibit cell growth to 50% of untreated)): 40.7 µM

COc1cc2[nH]c3ncnc(N4CCN(C(=S)Nc5ccc(S(=O)(=O)NC(C)=O)cc5)CC4)c3c2cc1OC [Compound 1-2, 4-(6,7-Dimethoxy-9H-pyrimido[4,5-b]indol-4-yl)-piperazine-1-carbothioic acid (4-acetylsulfamoyl-phenyl)-amide]
IC50 [1]: 198 µM

CC(=O)NS(=O)(=O)c1ccc(NC(=S)N2CCN(c3ncnc4[nH]c5ccc(Cl)cc5c34)CC2)cc1 [Compound 1-3, 4-(6-chloro-9H-pyrimido[4,5-b]indol-4-yl)-piperazine-1-carbothioic acid (4-acetylsulfamoyl-phenyl)-amide]
IC50 [1]: 35.8 µM

CC(=O)NS(=O)(=O)c1ccc(NC(=S)N2CCN(c3ncnc4[nH]c5cc(F)ccc5c34)CC2)cc1 [Compound 1-4]
IC50 [1]: 136 µM

COc1cc2[nH]c3ncnc(N4CCN(C(=S)Nc5ccc(S(=O)(=O)N6CCOCC6)cc5)CC4)c3c2cc1OC [Compound 1-26]
IC50 [1]: 139 µM

COc1cc2[nH]c3ncnc(N4CCN(C(=S)Nc5ccc(NC(=O)C6CC6)cc5)CC4)c3c2cc1OC [Compound 1-34]
IC50 [1]: 125 µM

COc1cc2[nH]c3ncnc(N4CCN(C(=S)Nc5ccc(NC(C)=O)cc5)CC4)c3c2cc1OC [Compound 1-42]
IC50 [1]: 216 µM

COc1cc2[nH]c3ncnc(N4CCN(C(=S)Nc5ccc(S(N)(=O)=O)cc5)CC4)c3c2cc1OC [Compound 1-107]
IC50 [1]: 300 µM

COc1cc2[nH]c3ncnc(N4CCN(C(=S)Nc5ccc(S(C)(=O)=O)cc5)CC4)c3c2cc1OC [Compound 1-115]
IC50 [1]: 49.8 µM

COc1cc2[nH]c3ncnc(N4CCN(C(=S)Nc5ccc(S(=O)(=O)Nc6ccc(F)cc6)cc5)CC4)c3c2cc1OC [Compound 2-3, 4-(6,7-dimethoxy-9H-pyrimido[4,5-b]indol-4-yl)-N-(4-(N-(4-fluorophenyl)sulfamoyl)phenyl)piperazine-1-carbothioamide]
IC50 [2]: 22.3 µM

COc1ccc2c(c1)[nH]c1ncnc(N3CCN(C(=S)Nc4ccc(S(=O)(=O)Nc5ccc(F)cc5)cc4)CC3)c12 [Compound 2-5, 4-(7-methoxy-9H-pyrimido[4,5-b]indol-4-yl)-N-(4-(N-(4-fluorophenyl)sulfamoyl)phenyl)piperazine-1-carbothioamide]
IC50 [2]: 10.7 µM

Cc1ccc(NS(=O)(=O)c2ccc(NC(=S)N3CCN(c4ncnc5[nH]c6cc(Cl)c(N7CCOCC7)cc6c45)CC3)cc2)cc1 [Compound 2-9, 4-(7-chloro-6-morpholino-9H-pyrimido[4,5-b]indol-4-yl)-N-(4-(N-tolylsulfamoyl)phenyl)piperazine-1-carbothioamide]
IC50 [2]: 85.2 µM
